The source of these data is US11618747B2, “LXR modulators with bicyclic core moiety” (OrsoBio, Inc., priority 2018, dated 2023).

Data set [1] in a line: Pharmacokinetics in mice after single oral dosing (blood/plasma and liver exposure). It counts as in vivo, mice (C57/bl6/J). To be noted: 20 mg/kg single oral dose. As for the experimental part: The pharmacokinetics of the compounds was assessed in mice after single dosing and oral administrations. Blood/plasma and liver exposure was measured via LC-MS.
The study design was as follows:
Animals: C57/bl6/J (Janvier) males
Diet: standard rodent chow
Animal handling: animals were withdrawn from food at least 12 h before administration
Design: single dose oral administration, n=3 animals per group
Sacrifice: at stated time point (4, 12 or 24 h) after administration
Bioanalytics: LC-MS of liver and blood/plasma samples

For data set [2], the target named is T1, ligand-binding domain (LBD) of LXRα (Homo sapiens, UniProt Q13133).
T1 construct: expressed in transfected cells; host or cells: HEK293
T1 sequence (Q13133 155-447): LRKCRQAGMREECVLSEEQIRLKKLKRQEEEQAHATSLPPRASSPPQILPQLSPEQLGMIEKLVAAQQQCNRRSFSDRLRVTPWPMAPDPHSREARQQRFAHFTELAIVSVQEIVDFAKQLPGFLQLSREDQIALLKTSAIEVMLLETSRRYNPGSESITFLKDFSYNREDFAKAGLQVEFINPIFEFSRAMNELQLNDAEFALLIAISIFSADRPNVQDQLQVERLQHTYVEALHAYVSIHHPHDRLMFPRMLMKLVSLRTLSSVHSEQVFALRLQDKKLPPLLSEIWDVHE
The data set is described as follows: LXR Gal4 reporter transient transfection assay (LBD-M2H Gal4α). Particulars: HEK293 cells. The class given is cell-based. Summed up:
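Test compounds act for 16 h on transiently transfected HEK293 cells carrying AD-LXR and GAL4 BD-cofactor (SRC1 or NCoR) fusions. Firefly luciferase under GAL4 elements is quantified and corrected with Renilla luciferase for transfection efficiency.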

Setting [3] is: LXRα LBD, read-out: LBD-M2H Gal4α (EC50 range).

Where two headings read alike, the source gives them in different places.

Consider `Cc1ccc(S(=O)(=O)n2c(-c3cccc(-c4ccc(C(=O)O)cc4)c3)c(-c3ccsc3C#N)c3cc(F)ccc32)cc1` [5/3], for which, in data set [1] (time point 4 h), the blood/plasma exposure entry is recorded as “C (C: 100 nM to <300 nM)”, the liver exposure result is recorded as “C (C: 1 μM to ≤3 μM)” and the liver/blood ratio result was “C (C: 10 to ≤30)”.
In the case of `Cc1ccc(S(=O)(=O)n2c(-c3cccc(N4CC(C(=O)O)C4)c3)c(-c3ccsc3C#N)c3cc(F)ccc32)cc1` [3/32], the “LBD-M2H Gal4α efficacy (value in brackets)” value in data set [2] came to 103%. For the same compound, in data set [2] (read-out: LBD-M2H Gal4α potency), the EC50 came to 106 nM.
For the compound `Cc1ccc(S(=O)(=O)n2c(-c3cccc(N4CC(C(=O)O)C4)c3)c(-c3ccsc3C#N)c3cc(F)c(Cl)cc32)cc1` [3/43], the EC50 in data set [2] (setting [3]) is 100 to 1000 nM.
The same measure, in the same setting: with `Cc1ccc(S(=O)(=O)n2c(-c3cccc(N4CC(C(=O)O)C4)c3)c(-c3ccsc3C#N)c3cc(C)ccc32)cc1` [3/46] the figure was under 100 nM.
Regarding `Cc1ccc(S(=O)(=O)n2c(-c3cccc(-c4ccc(C(=O)O)cc4Cl)c3)c(-c3ccsc3C#N)c3cc(F)ccc32)cc1` [3/48], in data set [1] (time point 12 h), the “blood/plasma exposure (below LLOQ, LLOQ given)” value is given as “(1.2 ng/mL)” and the liver exposure result was “A (A: <300 nM)”.
Take `Cc1ccc(S(=O)(=O)n2c(-c3cccc(N4CC(C(=O)O)C4)c3)c(-c3ccsc3C#N)c3cc(F)c(F)cc32)cc1` [3/42]: in data set [2] (setting [3]), the EC50 is 100 to 1000 nM.
On to `Cc1ccc(S(=O)(=O)n2c(-c3cccc(-c4ccc(C(=O)O)cc4)c3)c(-c3ccsc3C#N)c3cc(F)ccc32)cc1C` [23/2], for which, in data set [1] (time point 4 h), the blood/plasma exposure entry is listed as “B (B: 300 nM to ≤1 μM)”, the liver exposure result is reported as “D (D: >3 μM)” and the liver/blood ratio entry is “C (C: 10 to ≤30)”.
Consider `Cc1ccc(S(=O)(=O)n2c(-c3cccc(N4CC(C(=O)O)C4)c3)c(-c3ccsc3C#N)c3cc(Cl)ccc32)cc1` [3/44], for which the EC50 in data set [2] (setting [3]) was under 100 nM.
